Experimental data: patent publication US6737383B1, “Herbicidal oxadiazolidines” (priority 1999, dated 2004)

What was measured:
[1] = system: morningglory; assay: Test B pre/postemergence morningglory; format: in vivo, Ipomoea hederacea
Outline: (§1)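 Response is a visual 0-to-10 score relative to untreated plants, where 0 means no effect and 10 means complete control, taken twelve to sixteen days after application. Treatments went onto soil at planting and onto foliage of 1- to 4-leaf plants, using a surfactant-containing non-phytotoxic solvent.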

[2] = system: rape; assay: Test B pre/postemergence rape; format: in vivo, Brassica napus
Outline: as §1

[3] = system: wheat; assay: Test B pre/postemergence wheat; format: in vivo, Triticum aestivum; settings: for Wheat plant response rating (0 to 10 scale): 0 is no effect; for Plant response rating, Wheat: Rate 250 g/ha
Outline: as §1

[4] = system: duck salad; assay: Test B flood test duck salad; format: in vivo, Heteranthera limosa
Outline: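 Plants were grown to the 2-leaf stage before treatment with test chemical, then held in a greenhouse for twelve to sixteen days. Injury was visually rated against untreated controls on a 0–10 scale, where 0 is no effect and 10 is complete control.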

[5] = system: common pursiane; assay: Test D common purslane; format: in vivo, Portulaca oleracea
Outline: (§2)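 Visual injury ratings, 0 = no injury to 100 = complete control, taken 14 to 21 days after treatment. Test chemicals were in a surfactant-containing non-phytotoxic solvent; preemergence treatments went onto the sandy loam surface of seeded greenhouse pots within one day of sowing.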

[6] = system: common ragweed; assay: Test D common ragweed; format: in vivo, Ambrosia elatior; settings: Preemergence, 0 to 100 scale
Outline: as §2

[7] = system: winter wheat; assay: Test E winter wheat; format: in vivo, Triticum aestivum; settings: Postemergence
Outline: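 For postemergence, sowings are timed so plants reach the 1- to 4-leaf stage at spraying. Test compound is applied in a surfactant-containing solvent mixture that is non-phytotoxic. Response is judged by eye against untreated controls after approximately 21 to 28 days.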

[8] = system: blackgrass; assay: Test E blackgrass; format: in vivo, Alopecurus myosuroides; settings: Preemergence
[9] = system: green foxtail; assay: Test E green foxtail; format: in vivo, Setaria viridis; settings: Preemergence
[10] = system: Italian ryegrass; assay: Test E Italian ryegrass; format: in vivo, Lolium multiflorum; settings: Preemergence
[11] = system: winter wheat; assay: Test E winter wheat; format: in vivo, Triticum aestivum; settings: Preemergence
[12] = system: wild oat; assay: Test E wild oat; format: in vivo, Avena fatua; settings: Preemergence
[13] = system: winter barley; assay: Test E winter barley; format: in vivo, Hordeum vulgare; settings: Preemergence
[14] = Postemergence, Rate 125 g/ha, scale of 0 to 10 where 0 is no effect and 10 is complete control
[15] = Postemergence, Rate 250 g/ha, scale 0 to 10, 0 no effect, 10 complete control
[16] = Preemergence, Rate 62 g/ha, scale 0 to 10 (0 no effect, 10 complete control)
[17] = Preemergence, Rate 125 g/ha, scale 0 to 10 (0 no effect, 10 complete control)
[18] = Preemergence, Rate 250 g/ha, scale of 0 to 10 where 0 is no effect and 10 is complete control
[19] = Preemergence, Rate 500 g/ha, scale 0 to 10 (0 no effect, 10 complete control)
[20] = Rate 62 g/ha, Postemergence, scale of 0 to 10 where 0 is no effect and 10 is complete control
[21] = Rate 500 g/ha, Postemergence, scale 0 to 10, 0 no effect, 10 complete control
[22] = Preemergence, Rate 125 g/ha, 10 is complete control
[23] = Preemergence, scale of 0 to 10 where 0 is no effect and 10 is complete control
[24] = Postemergence, scale 0 to 10, 0 is no effect, 10 is complete control
[25] = Postemergence (flood test species), Rate 125 g/ha, scale of 0 to 10 where 0 is no effect and 10 is complete control
[26] = Rate 62 g/ha, Postemergence section, flood test species, scale of 0 to 10 where 0 is no effect and 10 is complete control
[27] = Rate 500 g/ha, listed under Postemergence (flood test species), scale 0 to 10, 0 no effect, 10 complete control
[28] = flood test, listed under Postemergence, Rate 250 g/ha, scale 0 to 10, 0 no effect, 10 complete control
[29] = Rate 64 g/ha, Preemergence; 0 to 100 scale, 0 no injury, 100 complete control
[30] = Rate 125 g/ha, Preemergence; 0 to 100 scale, 0 no injury, 100 complete control
[31] = Rate 500 g/ha, Preemergence; 0 to 100 scale
[32] = Rate 500 g/ha; Preemergence; 0 to 100 scale
[33] = Rate 64 g/ha, 0 no injury, 100 complete control
[34] = Rate 125 g/ha, 0 no injury, 100 complete control
[35] = Rate 250 g/ha, 0 to 100 scale (0 no effect, 100 complete control)
[36] = Rate 500 g/ha, 0 to 100 scale where 0 is no effect and 100 is complete control
[37] = Rate 1000 g/ha, 0 to 100 scale where 0 is no effect and 100 is complete control
[38] = Rate 62 g/ha, 0 to 100 scale, 0 no effect, 100 complete control
[39] = Rate 125 g/ha, 0 to 100 scale (0 no effect, 100 complete control)

CC(C)N(C(=O)n1oc(=O)n(C2CCCCC2)c1=O)c1ccc(F)cc1F [Compound 115]
Morningglory plant response rating [1, 14]: 3
Morningglory plant response rating [1, 15]: 6
Morningglory plant response rating [1, 16]: 0
Plant response rating, Morningglory [1, 17]: 0
Plant response rating, Morningglory [1, 18]: 0
Morningglory plant response rating [1, 19]: 0
Morningglory plant response rating [1, 20]: 3
Morningglory plant response rating [1, 21]: 6
Rape plant response rating [2, 14]: 0
Rape plant response rating [2, 15]: 0
Rape plant response rating [2, 16]: 0
Plant response rating, Rape [2, 17]: 0
Plant response rating, Rape [2, 18]: 0
Rape plant response rating [2, 19]: 5
Rape plant response rating [2, 20]: 0
Rape plant response rating [2, 21]: 0
Wheat plant response rating [3, 14]: 0
Wheat plant response rating [3, 16]: 0
Wheat plant response rating (0 to 10 scale) [3, 22]: 0
Plant response rating, Wheat [3, 23]: 0
Wheat plant response rating [3, 19]: 0
Wheat plant response rating [3, 20]: 0
Plant response rating, Wheat [3, 24]: 0
Wheat plant response rating [3, 21]: 0
Ducksalad plant response rating [4, 25]: 0
Ducksalad plant response rating [4, 26]: 0
Ducksalad plant response rating [4, 27]: 0
Ducksalad plant response rating [4, 28]: 0
Plant response rating, C. purslane ([5]; Rate 16 g/ha; Preemergence; 0 to 100 scale, 0 no injury, 100 complete control): 0
Plant response rating, C. purslane ([5]; Rate 32 g/ha; Preemergence; 0 to 100 scale, 0 no injury, 100 complete control): 0
Plant response rating, C. purslane [5, 29]: 0
Plant response rating, C. purslane [5, 30]: 0
Plant response rating, C. purslane ([5]; Rate 250 g/ha; Preemergence; 0 to 100 scale): 0
Plant response rating, C. purslane [5, 31]: 20
Plant response rating, C. purslane [5, 32]: 0
Plant response rating, C. ragweed ([6]; Rate 16 g/ha, 0 no injury, 100 complete control): 0
Plant response rating, C. ragweed ([6]; Rate 32 g/ha, 0 no injury, 100 complete control): 0
Plant response rating, C. ragweed [6, 33]: 0
Plant response rating, C. ragweed [6, 34]: 10
Plant response rating, C. ragweed ([6]; Rate 250 g/ha): 20
Plant response rating, C. ragweed ([6]; Rate 500 g/ha): 20
Plant response rating, Wheat (winter) [7, 35]: 10
Plant response rating, Wheat (winter) ([7]; Rate 1000 g/ha, 0 to 100 scale, 0 is no effect and 100 is complete control): 40
Plant response rating, Wheat (winter) ([7]; Rate 500 g/ha, 0 to 100 scale, 0 no effect, 100 complete control): 20
Plant response rating, Blackgrass ([8]; Rate 250 g/ha, 0 to 100 scale): 30
Plant response rating, Blackgrass [8, 36]: 50
Plant response rating, Blackgrass [8, 37]: 60
Plant response rating, Green foxtail ([9]; Rate 250 g/ha, 0 to 100 scale): 65
Plant response rating, Green foxtail [9, 36]: 70
Plant response rating, Green foxtail [9, 37]: 90
Plant response rating, I. Ryegrass ([10]; Rate 250 g/ha, 0 to 100 scale): 45
Plant response rating, I. Ryegrass [10, 36]: 50
Plant response rating, I. Ryegrass [10, 37]: 80
Plant response rating, Wheat (winter) ([11]; Rate 250 g/ha, 0 to 100 scale): 5
Plant response rating, Wheat (winter) [11, 36]: 10
Plant response rating, Wheat (winter) [11, 37]: 20
Plant response rating, Wild oat [12, 36]: 50
Plant response rating, Wild oat [12, 37]: 60
Plant response rating, Barley (winter) ([13]; Rate 250 g/ha, 0 to 100 scale): 10
Plant response rating, Barley (winter) [13, 36]: 20
Plant response rating, Barley (winter) [13, 37]: 30

CCn1c(=O)on(C(=O)N(c2ccccc2)C(C)C)c1=O [Compound 117]
Morningglory plant response rating [1, 14]: 7
Morningglory plant response rating [1, 15]: 7
Morningglory plant response rating [1, 16]: 0
Plant response rating, Morningglory [1, 17]: 0
Plant response rating, Morningglory [1, 18]: 2
Morningglory plant response rating [1, 19]: 6
Morningglory plant response rating [1, 20]: 2
Morningglory plant response rating [1, 21]: 10
Rape plant response rating [2, 14]: 0
Rape plant response rating [2, 15]: 2
Rape plant response rating [2, 16]: 6
Plant response rating, Rape [2, 17]: 10
Plant response rating, Rape [2, 18]: 10
Rape plant response rating [2, 19]: 10
Rape plant response rating [2, 20]: 0
Rape plant response rating [2, 21]: 6
Wheat plant response rating [3, 14]: 6
Wheat plant response rating [3, 16]: 2
Wheat plant response rating (0 to 10 scale) [3, 22]: 4
Plant response rating, Wheat [3, 23]: 7
Wheat plant response rating [3, 19]: 8
Wheat plant response rating [3, 20]: 2
Plant response rating, Wheat [3, 24]: 6
Wheat plant response rating [3, 21]: 8
Ducksalad plant response rating [4, 25]: 0
Ducksalad plant response rating [4, 26]: 0
Ducksalad plant response rating ([4]; Rate 250 g/ha, headed Pre-emergence (flood test species), scale 0 to 10 (0 no effect, 10 complete control)): 0
Plant response rating, Ducksalad ([4]; Rate 500 g/ha, headed Pre-emergence (flood test species), scale 0 to 10 (0 no effect, 10 complete control)): 0
Ducksalad plant response rating [4, 27]: 0
Ducksalad plant response rating ([4]; Rate 1000 g/ha, Pre-emergence (as headed), scale 0 to 10): 0
Ducksalad plant response rating ([4]; Rate 2000 g/ha, Pre-emergence (as headed), scale 0 to 10): 1
Ducksalad plant response rating [4, 28]: 0
Plant response rating, C. purslane [5, 29]: 0
Plant response rating, C. purslane [5, 30]: 0
Plant response rating, C. purslane [5, 31]: 65
Plant response rating, C. purslane [5, 32]: 0
Plant response rating, C. ragweed [6, 33]: 0
Plant response rating, C. ragweed [6, 34]: 0
Plant response rating, C. ragweed ([6]; Rate 500 g/ha): 65
Plant response rating, Wheat (winter) ([7]; Rate 62 g/ha, 0 to 100 scale): 0
Plant response rating, Wheat (winter) ([7]; Rate 125 g/ha, 0 to 100 scale): 10
Plant response rating, Wheat (winter) [7, 35]: 25
Plant response rating, Blackgrass [8, 38]: 50
Plant response rating, Blackgrass [8, 39]: 50
Plant response rating, Blackgrass ([8]; Rate 250 g/ha, 0 to 100 scale): 60
Plant response rating, Green foxtail [9, 38]: 50
Plant response rating, Green foxtail [9, 39]: 60
Plant response rating, Green foxtail ([9]; Rate 250 g/ha, 0 to 100 scale): 80
Plant response rating, I. Ryegrass [10, 38]: 50
Plant response rating, I. Ryegrass [10, 39]: 45
Plant response rating, I. Ryegrass ([10]; Rate 250 g/ha, 0 to 100 scale): 85
Plant response rating, Wheat (winter) [11, 38]: 30
Plant response rating, Wheat (winter) [11, 39]: 60
Plant response rating, Wheat (winter) ([11]; Rate 250 g/ha, 0 to 100 scale): 90
Plant response rating, Wild oat [12, 38]: 20
Plant response rating, Wild oat [12, 39]: 20
Plant response rating, Barley (winter) [13, 38]: 25
Plant response rating, Barley (winter) [13, 39]: 20
Plant response rating, Barley (winter) ([13]; Rate 250 g/ha, 0 to 100 scale): 30
